Test results as given in patent publication US12036197B2, “Composition for improving bioavailability of drugs” (priority 2019, dated 2024).
Like-named read-outs stand apart in the source and are kept apart here.

Tests used:
[1] = rat, in vivo
[2] = design: species or system SD rats; conditions: rat, in vivo
Excerpt: Laboratory Animals: Adult Male SD Rats.
The plasma was collected and subjected to quick freezing.

Compound	bioavailability [1]	bioavailability [2]
CC[C@H](C)[C@H](NC(=O)[C@H](CO)NC(=O)[C@H](CCCCN)NC(=O)CNC(=O)[C@H](CCCCN)NC(=O)[C@H](CC(=O)O)NC(=O)[C@H](Cc1cnc[nH]1)NC(=O)[C@H](CC(C)C)NC(=O)[C@H](CC(C)C)NC(=O)[C@H](CCC(N)=O)NC(=O)[C@H](Cc1cnc[nH]1)NC(=O)[C@H](CCC(=O)O)NC(=O)[C@H](CO)NC(=O)[C@@H](NC(=O)[C@H](C)N)C(C)C)C(=O)N[C@@H](CCC(N)=O)C(=O)N[C@@H](CC(=O)O)C(=O)N[C@@H](CC(C)C)C(=O)N[C@@H](CCCNC(=N)N)C(=O)N[C@@H](CCCNC(=N)N)C(=O)N[C@@H](CCCNC(=N)N)C(=O)N[C@@H](CCC(=O)O)C(=O)N[C@@H](CC(C)C)C(=O)N[C@@H](CC(C)C)C(=O)N[C@@H](CCC(=O)O)C(=O)N[C@@H](CCCCN)C(=O)N[C@@H](CC(C)C)C(=O)N[C@@H](CC(C)C)C(=O)NC(C)(C)C(=O)N[C@@H](CCCCN)C(=O)N[C@@H](CC(C)C)C(=O)N[C@@H](Cc1cnc[nH]1)C(=O)N[C@H](C(=O)N[C@@H](C)C(N)=O)[C@@H](C)O [Abaloparatide]	1.66%	–
CC[C@H](C)[C@@H]1NC(=O)[C@H](CCCNC(=N)N)NC(=O)[C@H](CC(=O)O)NC(=O)[C@H](CCSC)NC(=O)[C@H](CCCCN)NC(=O)[C@H](CCCNC(=N)N)NC(=O)CNC(=O)[C@H](Cc2ccccc2)NC(=O)[C@@H](NC(=O)CNC(=O)[C@H](CO)NC(=O)CNC(=O)[C@H](CCC(N)=O)NC(=O)[C@@H](NC(=O)[C@H](CCSC)NC(=O)[C@H](CCCCN)NC(=O)[C@@H]2CCCN2C(=O)[C@@H](N)CO)C(C)C)CSSC[C@@H](C(=O)N[C@@H](CCCCN)C(=O)N[C@H](C(=O)N[C@@H](CC(C)C)C(=O)N[C@@H](CCCN=C(N)N)C(=O)N[C@@H](CCCN=C(N)N)C(=O)N[C@@H](Cc2cnc[nH]2)C(=O)O)C(C)C)NC(=O)CNC(=O)[C@H](CC(C)C)NC(=O)CNC(=O)[C@H](CO)NC(=O)[C@H](CO)NC(=O)[C@H](CO)NC(=O)[C@H](CO)NC1=O [Nesiritide]	–	1.22%
